# Results: patent US6737383B1, “Herbicidal oxadiazolidines” (priority 1999, dated 2004)
# What was measured:
# wheat = assay: Test B pre/postemergence wheat; format: in vivo, Triticum aestivum
# Method in brief: (§1)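 Herbicidal effect was estimated by eye on a ten-point control scale after plants spent twelve to sixteen days in a greenhouse following soil or foliar treatment. Foliar sprays targeted plants at one to four leaves; all doses were formulated in a non-phytotoxic solvent with surfactant.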
# duck salad = assay: Test B flood test duck salad; format: in vivo, Heteranthera limosa
# Method in brief: (§2)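 Each value is a visual injury score relative to controls, with 10 meaning complete control and 0 no effect. Evaluation took place twelve to sixteen days after the 2-leaf-stage plants were treated and kept in the greenhouse.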
# corn = assay: Test B pre/postemergence corn; format: in vivo, Zea mays
# Method in brief: as §1
# purple nutsedge = assay: Test B pre/postemergence purple nutsedge; format: in vivo, Cyperus rotundus
# Method in brief: as §1
# pigweed = assay: Test B pre/postemergence pigweed; format: in vivo, Amaranthus retroflexus
# Method in brief: as §1
# surinam grass = assay: Test B pre/postemergence surinam grass; format: in vivo, Brachiaria decumbens
# Method in brief: as §1
# bamyardgrass = assay: Test B flood test barnyardgrass; format: in vivo, Echinochloa crus-galli
# Method in brief: as §2
# giant foxtail = assay: Test B pre/postemergence giant foxtail; format: in vivo, Setaria faberii
# Method in brief: as §1
# rape = assay: Test B pre/postemergence rape; format: in vivo, Brassica napus
# Method in brief: as §1
# rice = assay: Test B flood test rice; format: in vivo, Oryza sativa
# Method in brief: as §2
# cocklebur = assay: Test B pre/postemergence cocklebur; format: in vivo, Xanthium strumarium
# Method in brief: as §1
# soybean = assay: Test B pre/postemergence soybean; format: in vivo, Glycine max
# Method in brief: as §1
# smallflower flatsedge = assay: Test B flood test smallflower flatsedge; format: in vivo, Cyperus difformis
# Method in brief: as §2
# sugar beet = assay: Test B pre/postemergence sugar beet; format: in vivo, Beta vulgaris
# Method in brief: as §1
# crabgrass = assay: Test B pre/postemergence crabgrass; format: in vivo, Digitaria sanguinalis
# Method in brief: as §1
# blackgrass = assay: Test B pre/postemergence blackgrass; format: in vivo, Alopecurus myosuroides
# Method in brief: as §1
# [1] = Preemergence, Rate 62 g/ha, scale of 0 to 10 where 0 is no effect and 10 is complete control
# [2] = Preemergence, Rate 250 g/ha, scale of 0 to 10 where 0 is no effect and 10 is complete control
# [3] = Preemergence, Rate 500 g/ha, scale of 0 to 10 where 0 is no effect and 10 is complete control
# [4] = Rate 62 g/ha, Postemergence, scale of 0 to 10 where 0 is no effect and 10 is complete control
# [5] = Rate 125 g/ha, Postemergence, scale 0 to 10
# [6] = Rate 125 g/ha, Preemergence, scale of 0 to 10 where 0 is no effect and 10 is complete control
# [7] = Rate 62 g/ha, headed Pre-emergence (flood test species), scale 0 to 10 (0 no effect, 10 complete control)
# [8] = Rate 125 g/ha, Pre-emergence, flood test species, scale 0 to 10 where 0 is no effect and 10 is complete control
# [9] = Rate 250 g/ha, Pre-emergence, flood-test species, scale 0 to 10, 0 is no effect, 10 is complete control
# [10] = Rate 500 g/ha, Pre-emergence, flood test species, scale 0 to 10 (0 no effect, 10 complete control)
# [11] = Rate 500 g/ha, Postemergence, scale 0 to 10
structure (smiles),measurement,setting,value
COC(=O)Cn1c(=O)on(C(=O)N(c2ccc(F)cc2)C(C)C)c1=O [Compound 215],Wheat plant response rating,wheat; [1],0
same,Wheat plant response rating,wheat; [2],0
same,"Plant response rating, Wheat",wheat; [3],0
same,Wheat plant response rating,wheat; [4],3
same,Wheat plant response rating,wheat; [5],3
same,Wheat plant response rating,wheat; [6],0
same,"Plant response rating (0 to 10; 0 is no effect, 10 is complete control), Wheat","wheat; Rate 250 g/ha, Postemergence",6
same,Ducksalad plant response rating,duck salad; [7],0
same,Ducksalad plant response rating,duck salad; [8],0
same,Ducksalad plant response rating,duck salad; [9],0
same,Ducksalad plant response rating,duck salad; [10],0
same,Corn plant response rating,corn; [1],0
same,Corn plant response rating,corn; [2],0
same,"Plant response rating, Corn",corn; [3],2
same,Corn plant response rating,corn; [4],0
same,Corn plant response rating,corn; [5],0
same,Corn plant response rating,corn; [6],0
same,"Plant response rating (0 to 10; 0 is no effect, 10 is complete control), Corn","corn; Rate 250 g/ha, Postemergence",0
same,Corn plant response rating,corn; [11],0
same,Nutsedge plant response rating,purple nutsedge; [1],0
same,Nutsedge plant response rating,purple nutsedge; [2],0
same,"Plant response rating, Nutsedge",purple nutsedge; [3],0
same,Nutsedge plant response rating,purple nutsedge; [4],0
same,Nutsedge plant response rating,purple nutsedge; [5],0
same,Nutsedge plant response rating,purple nutsedge; [6],0
same,"Plant response rating (0 to 10; 0 is no effect, 10 is complete control), Nutsedge","purple nutsedge; Rate 250 g/ha, Postemergence",0
same,Nutsedge plant response rating,purple nutsedge; [11],0
same,Redroot pigweed plant response rating,pigweed; [1],4
same,Redroot pigweed plant response rating,pigweed; [2],5
same,"Plant response rating, Redroot pigweed",pigweed; [3],6
same,Redroot pigweed plant response rating,pigweed; [4],0
same,Redroot pigweed plant response rating,pigweed; [5],0
same,Redroot pigweed plant response rating,pigweed; [6],4
same,"Plant response rating (0 to 10; 0 is no effect, 10 is complete control), Redroot pigweed","pigweed; Rate 250 g/ha, Postemergence",6
same,Redroot pigweed plant response rating,pigweed; [11],6
same,B. signalgrass plant response rating,surinam grass; [1],0
same,B. signalgrass plant response rating,"surinam grass; Preemergence, Rate 250 g/ha, scale 0 to 10, 0 is no effect, 10 is complete control",2
same,"Plant response rating, B. signalgrass",surinam grass; [3],2
same,B. signalgrass plant response rating,surinam grass; [4],0
same,B. signalgrass plant response rating,"surinam grass; Rate 125 g/ha, Postemergence, scale 0 (no effect) to 10 (complete control)",0
same,B. signalgrass plant response rating,surinam grass; [6],0
same,"Plant response rating (0 to 10; 0 is no effect, 10 is complete control), B. signalgrass","surinam grass; Rate 250 g/ha, Postemergence",3
same,B. signalgrass plant response rating,"surinam grass; Rate 500 g/ha, Postemergence, scale 0 to 10, 0 no effect, 10 complete control",3
same,Barnyardgrass plant response rating,bamyardgrass; [7],0
same,Barnyardgrass plant response rating,bamyardgrass; [8],0
same,Barnyardgrass plant response rating,bamyardgrass; [9],0
same,Barnyardgrass plant response rating,bamyardgrass; [10],0
same,Giant foxtail plant response rating,giant foxtail; [1],3
same,Giant foxtail plant response rating,giant foxtail; [2],3
same,"Plant response rating, Giant foxtail",giant foxtail; [3],5
same,Giant foxtail plant response rating,giant foxtail; [4],0
same,Giant foxtail plant response rating,giant foxtail; [5],0
same,Giant foxtail plant response rating,giant foxtail; [6],3
same,"Plant response rating (0 to 10; 0 is no effect, 10 is complete control), Giant foxtail","giant foxtail; Rate 250 g/ha, Postemergence",3
same,Giant foxtail plant response rating,giant foxtail; [11],5
same,Rape plant response rating,rape; [1],0
same,Rape plant response rating,rape; [2],0
same,"Plant response rating, Rape",rape; [3],2
same,Rape plant response rating,rape; [4],0
same,Rape plant response rating,rape; [5],0
same,Rape plant response rating,rape; [6],0
same,"Plant response rating (0 to 10; 0 is no effect, 10 is complete control), Rape","rape; Rate 250 g/ha, Postemergence",0
same,Rape plant response rating,rape; [11],0
same,Rice plant response rating,rice; [7],0
same,Rice plant response rating,rice; [8],0
same,Rice plant response rating,rice; [9],0
same,Rice plant response rating,rice; [10],0
same,Cocklebur plant response rating,cocklebur; [1],0
same,Cocklebur plant response rating,cocklebur; [2],0
same,"Plant response rating, Cocklebur",cocklebur; [3],0
same,Cocklebur plant response rating,cocklebur; [4],0
same,Cocklebur plant response rating,cocklebur; [5],0
same,Cocklebur plant response rating,cocklebur; [6],0
same,"Plant response rating (0 to 10; 0 is no effect, 10 is complete control), Cocklebur","cocklebur; Rate 250 g/ha, Postemergence",0
same,Cocklebur plant response rating,cocklebur; [11],0
same,Soybean plant response rating,soybean; [1],0
same,Soybean plant response rating,soybean; [2],0
same,"Plant response rating, Soybean",soybean; [3],0
same,Soybean plant response rating,soybean; [4],0
same,Soybean plant response rating,soybean; [5],1
same,Soybean plant response rating,soybean; [6],0
same,"Plant response rating (0 to 10; 0 is no effect, 10 is complete control), Soybean","soybean; Rate 250 g/ha, Postemergence",1
same,Soybean plant response rating,soybean; [11],1
same,S. Flatsedge plant response rating,smallflower flatsedge; [7],0
same,S. Flatsedge plant response rating,smallflower flatsedge; [8],0
same,S. Flatsedge plant response rating,smallflower flatsedge; [9],0
same,S. Flatsedge plant response rating,smallflower flatsedge; [10],0
same,Sugarbeets plant response rating,sugar beet; [1],0
same,Sugarbeets plant response rating,sugar beet; [2],2
same,"Plant response rating, Sugarbeets",sugar beet; [3],7
same,Sugarbeets plant response rating,sugar beet; [4],0
same,Sugarbeets plant response rating,sugar beet; [5],0
same,Sugarbeets plant response rating,sugar beet; [6],2
same,"Plant response rating (0 to 10; 0 is no effect, 10 is complete control), Sugarbeets","sugar beet; Rate 250 g/ha, Postemergence",0
same,Sugarbeets plant response rating,sugar beet; [11],0
same,Crabgrass plant response rating,crabgrass; [1],3
same,Crabgrass plant response rating,crabgrass; [2],4
same,"Plant response rating, Crabgrass",crabgrass; [3],4
same,Crabgrass plant response rating,crabgrass; [4],0
same,Crabgrass plant response rating,crabgrass; [5],0
same,Crabgrass plant response rating,crabgrass; [6],4
same,"Plant response rating (0 to 10; 0 is no effect, 10 is complete control), Crabgrass","crabgrass; Rate 250 g/ha, Postemergence",2
same,Crabgrass plant response rating,crabgrass; [11],2
same,Blackgrass plant response rating,blackgrass; [1],4
same,"Plant response rating, Blackgrass",blackgrass; [3],6
same,Blackgrass plant response rating,blackgrass; [4],0
same,Blackgrass plant response rating,blackgrass; [5],0
same,Blackgrass plant response rating,blackgrass; [6],6
same,"Plant response rating (0 to 10; 0 is no effect, 10 is complete control), Blackgrass","blackgrass; Rate 250 g/ha, Postemergence",4
same,Blackgrass plant response rating,blackgrass; [11],5
